Reference: patent US20220142958A1, “MEDICINAL COMPOSITION HAVING EXCELLENT STABILITY” (EA Pharma Co., Ltd., priority 2019, published 2022)

How the values were obtained:
serum Ca concentration = experiment: Serum Ca concentration in bilaterally nephrectomized rats after single intravenous administration; type: in vivo, rat
From the text: (§1) After quarantine and acclimatization periods of 6 days, fifty-one rats (Crl: CD (SD), male) aged 7 weeks were fed a 100% sucrose diet ad libitum from four days before the surgery. On the day of the surgery, skin incisions were made on the back at the sites of the right and left kidneys under isoflurane anesthesia and the renal capsules were removed to ligate the renal arteries and veins and the ureters using threads before removing the right and left kidneys. A penicillin solution was given upon suturing, and 5 mL of physiological saline was intraperitoneally administered before returning the rats into the breeding cages.
(§2) On the day of administering the test substance, for example, a day after the bilaterally nephrectomy, approximately 100 μL of blood was collected from the tail vein without anesthesia using a capillary tube, which was centrifuged in a high speed refrigerated microcentrifuge (10,000 rpm, 5 min, 4° C.) to separate the serum. Thereafter, the serum Ca concentration was measured with a dri-chemanalyzer (model number: FUJI DRI-CHEM 7000, manufacturer: FUJI FILM Medical Co., Ltd.) to select individuals with a serum Ca concentration of 8.0 mg/dL or more and less than 14.0 mg/dL.
(§3) On a day after the bilaterally nephrectomy, the given doses were calculated based on the weight of the selected animals on that day. Group 1 was given a medium (physiological saline), Groups 2, 3 and 4 were given the Compound A1 solution (0.3, 3 and 30 mg/mL, respectively), and Groups 5, 6, 7 and 8 (5 rats per group) were given the comparative compound (0.3, 1, 3 and 10 mg/mL, respectively), each given a single dose of 1 ml/kg from the tail vein. Prior to the administration (0 hours), and 24 and 48 hours after the administration, approximately 300 μL of blood was collected without anesthesia from the tail vein using capillary tubes for obtaining the serum. The blood for obtaining the serum was left to stand at room temperature, and centrifuged in a high speed refrigerated microcentrifuge (10,000 rpm, 5 min, 4° C.) within a period of 30 minutes to 2 hours after the blood collection to collect the serum.
(§4) Thereafter, the serum Ca was analyzed with COBAS analyzer (Model number: COBAS INTEGRA 400 plus, manufacturer: Roche Diagnostics K.K.), and the remaining serum was stored in an ultra-low freezer (temperature set to −80±15° C.) until the day of iPTH measurement. On the day of iPTH measurement, the serum was melted at room temperature for measurement.
(§5) A 30 mg/ml Compound A1 solution ([…] of Compound A1 dissolved in 10 ml of physiological saline) was diluted with physiological saline to prepare 0.3 mg/ml and […] Compound A1 solutions.
(§6) 149 mg of etelcalcetide (Ac-c(C) arrrar-NH2) TFA salt (WO 2011/014707 A) was prepared to have pH of 6 to 8 with 7 ml of physiological saline and a 0.5N aqueous NaOH solution, and physiological saline was further added thereto to make 10 ml. The prepared 10 mg/ml comparative compound solution was diluted with physiological saline to obtain 0.3 mg/ml and 1 mg/ml comparative compound solutions.

[1] = tested on: SHPT patients on maintenance hemodialysis; experiment: Phase I/II clinical trial, single administration; type: in vivo, human; conditions: for percentage decrease in the serum iPTH concentration: 66 hours after the administration
Description: Targeting SHPT patients on maintenance hemodialysis, pharmacokinetics, pharmacodynamics and safety upon single or repeated intravenous administration of Compound A1 were examined by conducting a double-blind test using a placebo as a control.
Single administration: Based on the clinically effective dose calculated in Reference Example 5, the doses were given at 0.025 mg, 0.05 mg, 0.1 mg, 0.2 mg, 0.4 mg, 0.6 mg, and 0.8 mg (7 steps). On the day of trial drug administration, the trial drug was intravenously administered as slow as possible within 60 seconds 2 to 4 hours following the end of dialysis. Here, the trial drug was administered by diluting a required dose taken from the Compound A1 vial formulation prepared as follows with sterilized water for injection, and filling a syringe with the resultant in accordance with the dose to be administered.
Each item was evaluated according to the predetermined evaluation schedule.
A vial formulation encapsulating 1 mg of Compound A1 in terms of a dehydrate, and sodium chloride, disodium hydrogen phosphate dodecahydrate, and sodium dihydrogen phosphate dihydrate as additives in 10 ml of sterilized water for injection

serum iPTH concentration = experiment: Serum iPTH concentration in bilaterally nephrectomized rats after single intravenous administration; type: in vivo, rat
From the text: as §1, §2, §3, §4, §5, §6

[2] = tested on: bilaterally nephrectomized rats; experiment: Survival of bilaterally nephrectomized rats after single doses; type: in vivo, rat; conditions: 48 hours after the administration, all administered groups (0.3, 3, 30 mg/kg)
From the text: as §1, §3

serum iPTH = experiment: PK and PK/PD analysis of P1 (three-compartment model, indirect response model incorporating rebound); type: in vivo, human; conditions: ±standard error
Description: A PK/PD analysis was conducted to estimate the clinically effective dose based on the results from P1. The dose of 2.5 mg seemed to be excessive and thus was eliminated from the analysis. PK (mean plasma concentration) and PD (mean iPTH level normalized by the levels of the placebo group and the 0-hour level) data of the doses of 0.01 mg, 0.1 mg and 1 mg were used. An indirect response model incorporating rebound was used for the PK/PD analysis.
Based on the results of PK of the three given doses (0.01 mg, 0.1 mg, and 1 mg) in P1, the three given doses were simultaneously analyzed using a three-compartment model to calculate the PK parameters (FIG. 2-5 and Table 16-2).
Using the calculated PK parameters as an input function, PK/PD analysis was performed using an indirect response model incorporating rebound (FIG. 2-6) to calculate the EC50 value in healthy adults (FIG. 2-7 and Table 16-3).

[3] = Non-clinical studies of excretion and elimination (normal rat); type: in vivo
[4] = 0.3 mg/kg single i.v., 24 hours after the administration
[5] = 0.3 mg/kg single i.v., 48 hours after the administration
[6] = 3 mg/kg single i.v., 24 hours after the administration
[7] = 3 mg/kg single i.v., 48 hours after the administration
[8] = 30 mg/kg single i.v., 24 hours after the administration
[9] = 30 mg/kg single i.v., 48 hours after the administration
[10] = logistic curve fitting, 48 hours after the administration vs given dose

Q: Which “mean serum Ca concentration” value (serum Ca concentration; [4]) does the source give for `Cc1c(Cl)cc(S(=O)(=O)[O-])cc1NC(=O)NC[C@H](N)C(=O)O.[Na+]` [Compound A1, sodium 3-{[(2S)-2-amino-2-carboxyethyl]carbamoylamino}-5-chloro-4-methylbenzenesulfonate] here?
A: The value was 9.07 mg/dL.

Q: What about the “mean serum Ca concentration” value (serum Ca concentration; [5]) of the same molecule?
A: Its value is 10.24 mg/dL.

Q: What about the “mean serum Ca concentration” value (serum Ca concentration; [6]) of the same molecule?
A: Its value is 7.97 mg/dL.

Q: And the “mean serum Ca concentration” value (serum Ca concentration; [7])?
A: Its value is 8.55 mg/dL.

Q: What about the “mean serum Ca concentration” value (serum Ca concentration; [8]) of the same molecule?
A: Its value is 7.99 mg/dL.

Q: And the “mean serum Ca concentration” value (serum Ca concentration; [9])?
A: Its value is 8.14 mg/dL.

Q: What about the “lower limit value of the serum Ca concentration (simulated)” value (serum Ca concentration; [10]) of the same molecule?
A: The value was 8.072 mg/dL.

Q: And the “percentage decrease in the serum iPTH concentration” value (“percentage decrease” for short) ([1]; 0.025 mg dose group)?
A: The value was 27%.

Q: And the “percentage decrease” value ([1]; 0.05 mg dose group)?
A: Its value is 48%.

Q: And the “percentage decrease” value ([1]; 0.1 mg dose group)?
A: Its value is 44%.

Q: What about the “percentage decrease” value ([1]; 0.2 mg dose group) of the same molecule?
A: The value was 57%.

Q: And the “percentage decrease” value ([1]; 0.4 mg dose group)?
A: The value was 78%.

Q: What about the “percentage decrease” value ([1]; 0.6 mg dose group) of the same molecule?
A: Its value is 69%.

Q: And the “percentage decrease” value ([1]; 0.8 mg dose group)?
A: Its value is 66%.

Q: And the “time the serum iPTH lowering effect continued after the administration” value ([1]; single administration, just before the dialysis)?
A: The value was “up to 66 hours”.

Q: What about the vomiting ([1]; single administration, observed in the 0.4 mg and higher dose groups) of the same molecule?
A: Its vomiting is “non-severe and mild”.

Q: What about the nausea ([1]; single administration, observed in the 0.6 mg and higher dose groups) of the same molecule?
A: The nausea was “non-severe and mild”.

Q: And the “Cmax and AUC in plasma” value ([1]; single i.v. 0.025 to 0.8 mg, relation to dose)?
A: The value was “increased with the increase in the given dose”.

Q: What about the mean serum iPTH concentration (serum iPTH concentration; [4]) of the same molecule?
A: Its mean serum iPTH concentration is 140 pg/mL.

Q: What about the mean serum iPTH concentration (serum iPTH concentration; [5]) of the same molecule?
A: Its mean serum iPTH concentration is 338 pg/mL.

Q: And the mean serum iPTH concentration (serum iPTH concentration; [6])?
A: The mean serum iPTH concentration was 138 pg/mL.

Q: What about the mean serum iPTH concentration (serum iPTH concentration; [7]) of the same molecule?
A: The mean serum iPTH concentration was 280 pg/mL.

Q: What about the mean serum iPTH concentration (serum iPTH concentration; [8]) of the same molecule?
A: Its mean serum iPTH concentration is 118 pg/mL.

Q: What about the mean serum iPTH concentration (serum iPTH concentration; [9]) of the same molecule?
A: The mean serum iPTH concentration was 245 pg/mL.

Q: And the EC50 (serum iPTH concentration; Rattus norvegicus, iv, plasma concentration, rats, read-out: 50% effective concentration, EC50 value, for decreasing the serum iPTH concentration)?
A: Its EC50 is 0.075 µg/mL.

Q: What about the “lower limit value of the serum iPTH concentration (simulated)” value (serum iPTH concentration; [10]) of the same molecule?
A: Its value is 203.0 pg/mL.

Q: And the “decrease of serum iPTH and Ca concentrations” value (serum iPTH concentration; renal failure rat models, during 48 hours after the administration, relation to dose)?
A: The value was “sufficiently decreased during the 48 hours after the administration but the decreases were gradual with respect to the increase in the dose”.

Q: What about the “number of rats surviving (of five per group)” value [2] of the same molecule?
A: Its value is “five”.

Q: What about the Emax (serum iPTH; healthy adults, indirect response model incorporating rebound) of the same molecule?
A: The Emax was 0.920 ± 0.027 ratio.

Q: What about the K12 (serum iPTH; three-compartment model) of the same molecule?
A: The K12 was 0.658 ± 0.136 h⁻¹.

Q: What about the K13 (serum iPTH; three-compartment model) of the same molecule?
A: The K13 was 4.42 ± 1.80 h⁻¹.

Q: And the K21 (serum iPTH; three-compartment model)?
A: The K21 was 0.819 ± 0.049 h⁻¹.

Q: And the K31 (serum iPTH; three-compartment model)?
A: The K31 was 6.89 ± 1.33 h⁻¹.

Q: And the Ke (serum iPTH; three-compartment model)?
A: The Ke was 1.28 ± 0.15 h⁻¹.

Q: And the “elimination from the plasma” value ([3]; intravenously administered to a normal rat)?
A: Its value is “rapidly eliminated”.

Q: What about the “main route of excretion” value ([3]; non-clinical studies) of the same molecule?
A: The value was “renal excretion”.
